Source: US10947197B2, “Synthesis of the radiolabeled prostate-specific membrane antigen (PSMA) inhibitor [18F]DCFPyL” (The Johns Hopkins University, priority 2016, dated 2021)

Legend:
Type in all cases: physicochemical
[1] = Retesting at radiotracer expiry: visual inspection (appearance); conditions: n = 3, specification: clear colorless solution, no visible particulate matter
From the text: Using remote handling equipment and appropriate radiation shielding (leaded glass), the vial containing the [^18F]DCFPyL product was visually inspected under bright light. The product met this acceptance specification if it was clear and colorless with no evidence of foreign matter.

[2] = Retesting at radiotracer expiry: pH by indicator paper; conditions: specification 4.5-8.5; for pH, expiry: average n = 3, 360 min after EOS
From the text: A drop of the [^18F]DCFPyL final product matrix was applied to pH indicator paper (ColorPhast-Indicator strip—pH 2-9; sensitivity of 0.3 to 0.5 units, EMD Chemicals Inc., Gibbstown, N.J.). The strip color was matched to an indicator chart. The product met this acceptance specification if the pH was between 4.5 and 8.5.

[3] = Retesting at radiotracer expiry: radiochemical purity (HPLC) after storage under ambient conditions; conditions: for Expiry radiochemical purity, %: ambient storage
Procedure: Using the same HPLC system described for the radiochemical identity test, an appropriate volume (50 μL) of [^18F]DCFPyL was injected at a quantity injected that avoids uncorrected dead-time loss (for main peak) in the radioactive detection system. The percent radiochemical purity of [^18F]DCFPyL was determined by dividing the radioactivity associated with the [^18F]DCFPyL peak by total activity assayed in the chromatogram multiplied by 100. The product met this acceptance specification if the radiochemical purity was greater than or equal to 95%. A sample QC chromatogram is shown in FIG. 7 (DCFPyL−RT=7.6 min., k′=8.7).

[4] = RFM synthesis (head prints REM)
[5] = large-scale RFM batch, 4.5 GBq/mL (122 mCi/mL), added sodium ascorbate, 99.7% at EOS

## O=C(O)CC[C@H](NC(=O)N[C@@H](CCCCNC(=O)c1ccc([18F])nc1)C(=O)O)C(=O)O [[^18F]DCFPyL, 2-(3-{1-carboxy-5-[(6-[^18F]fluoro-pyridine-3-carbonyl)-amino]-pentyl}-ureido)-pentanedioic acid]
[1]; ELIXYS synthesis
  Appearance, 360 min after EOS: Conforms
[1]; [4]
  Appearance, 360 min after EOS: Conforms
[1]; original synthesis
  Appearance, 240 min after EOS: Conforms
[2]; ELIXYS synthesis
  pH, expiry: 5
[2]; [4]
  pH, expiry: 5
[2]; original synthesis, average n = 3, second row headed pH, initial, beside pH, expiry
  pH, initial: 5
[3]; ELIXYS synthesis, average n = 3, expiry 360 min after EOS
  Expiry radiochemical purity, %: 100%
[3]; RFM synthesis (head prints REM), average n = 3, expiry 360 min after EOS
  Expiry radiochemical purity, %: 100%
[3]; highest product yield validation run, 1.6 GBq/mL (44 mCi/mL)
  QC acceptance specifications at the 6-hour expiry: meet all QC acceptance specifications
[3]; [5]
  radiochemical purity 3 hours post EOS: 98.8%
  radiochemical purity 4 hours post EOS: 98.5%
  radiochemical purity 6 hours post EOS: 98.2%
[3]; large-scale RFM batch, 5.7 GBq/mL (153 mCi/mL), no sodium ascorbate, 97.6% at EOS
  radiochemical purity at the 6-hour expiry: 51.1%
[3]; original first-in-human synthesis, average n = 3, expiry 240 min after EOS
  Expiry radiochemical purity, %: 100%
